Source: the NIST ThermoML archive (doi:10.1016/j.jct.2005.05.008)

How the values were obtained:
[1] = 298.15 K; 101.33 kPa; Liquid
[2] = an = ratio of the nth substance listed, in mol/kg; settings: 101 kPa, Liquid, Vibrating tube method

CC(=O)N(C)C [N,N-dimethylethanamide]
Settings	mass density [kg/m3]
[1]	936.357

CN(C)C=O [dimethylformamide]
Settings	mass density [kg/m3]
[1]	943.792

CN(C)C=O [dimethylformamide] + CCCC[N+](CCCC)(CCCC)CCCC.[O-][Cl+3]([O-])([O-])[O-]
[2], a2 = 0
Settings	mass density [kg/m3]
283.15 K	958.067
293.15 K	948.553
298.15 K	943.79
303.15 K	939.014
313.15 K	929.43
323.15 K	919.797
333.15 K	910.117

CN(C)C=O [dimethylformamide] + CCC[N+](CCC)(CCC)CCC.[O-][Cl+3]([O-])([O-])[O-]
[2], a2 = 0
Settings	mass density [kg/m3]
283.15 K	958.067
293.15 K	948.553
298.15 K	943.79
303.15 K	939.014
313.15 K	929.43
323.15 K	919.797
333.15 K	910.117

CN(C)C=O [dimethylformamide] + CC[N+](CC)(CC)CC.[O-][Cl+3]([O-])([O-])[O-]
[2], a2 = 0
Settings	mass density [kg/m3]
283.15 K	958.067
293.15 K	948.553
298.15 K	943.79
303.15 K	939.014
313.15 K	929.43
323.15 K	919.797
333.15 K	910.117

CN(C)C=O [dimethylformamide] + C[N+](C)(C)C.[O-][Cl+3]([O-])([O-])[O-]
[2], a2 = 0
Settings	mass density [kg/m3]
283.15 K	958.067
293.15 K	948.553
298.15 K	943.79
303.15 K	939.014
313.15 K	929.43
323.15 K	919.797
333.15 K	910.117

CCCC[N+](CCCC)(CCCC)CCCC.[O-][Cl+3]([O-])([O-])[O-] [tetrabutylammonium perchlorate] + CN(C)C=O
mass density [kg/m3], [2]
Settings	a1 = 0.02852	a1 = 0.05393	a1 = 0.07866	a1 = 0.1047	a1 = 0.1431	a1 = 0.1824	a1 = 0.222	a1 = 0.2619
283.15 K	959.148	960.097	961.015	961.969	963.376	964.794	966.232	967.661
293.15 K	949.672	950.653	951.604	952.588	954.042	955.511	956.99	958.466
298.15 K	944.93	945.929	946.892	947.89	949.37	950.86	952.366	953.862
303.15 K	940.173	941.191	942.17	943.187	944.69	946.204	947.732	949.254
313.15 K	930.632	931.686	932.697	933.756	935.303	936.87	938.448	940.016
323.15 K	921.05	922.138	923.191	924.277	925.877	927.496	929.126	930.747
333.15 K	911.409	912.535	913.625	914.75	916.4	918.08	919.765	921.436

CC[N+](CC)(CC)CC.[O-][Cl+3]([O-])([O-])[O-] [tetraethylammonium perchlorate] + CN(C)C=O
mass density [kg/m3], [2]
Settings	a1 = 0.02269	a1 = 0.04218	a1 = 0.06274	a1 = 0.08215	a1 = 0.1147	a1 = 0.1455	a1 = 0.1761	a1 = 0.2062
283.15 K	959.351	960.443	961.586	962.663	964.449	966.152	967.825	969.465
293.15 K	949.863	950.975	952.142	953.234	955.047	956.775	958.473	960.139
298.15 K	945.114	946.237	947.409	948.513	950.338	952.082	953.791	955.471
303.15 K	940.349	941.482	942.667	943.781	945.623	947.378	949.101	950.793
313.15 K	930.795	931.951	933.155	934.288	936.165	937.945	939.7	941.419
323.15 K	921.19	922.369	923.599	924.748	926.661	928.473	930.257	932.007
333.15 K	911.533	912.731	913.987	915.156	917.106	918.957	920.766	922.55
